Test results as given in patent US20230203058A1, “MACROCYCLIC DIAMINE DERIVATIVES AS ENT INHIBITORS FOR THE TREATMENT OF CANCERS, AND COMBINATION THEREOF WITH ADENOSINE RECEPTOR ANTAGONISTS” (ITEOS BELGIUM SA, priority 2020, published 2023).
Where two headings read alike, the source gives them in different places.

Columns and labels:
[1] = system: CMV peptide-specific CD8+ T cells; assay: CMV antigen recall assay (FIG. 3); format: cell-based, human; details: ATP 300 µM, 7 days, with IL-2, IL-7, nivolumab
Experimental: FIG. 3 depicts a bar graph of percent tetramer. PBMCs from a healthy volunteer donor with previous history of CMV infection and known HLA-A*02 subtype were cultured for 7 days with a peptide ([…]) derived from the immunodominant CMV antigen pp65 alongside IL-2, IL-7 and the anti-PD1 antibody nivolumab. ATP was added to the cultures as a source of adenosine, alongside the ENT1 inhibitor molecules as indicated. Expansion of the peptide-specific CD8^+ T cell population was monitored via flow cytometry using […]-MHC-I tetramers linked with BV421. ** = p < 0.01; * = p < 0.05; derived from one-way ANOVA with Tukey’s multiple comparisons test from technical replicates in a single experiment.
Frozen vials of PBMCs from a healthy volunteer donor with history of CMV infection and known HLA-A*02 subtype were purchased from ImmuneXperts. Cells were thawed and washed into X-VIVO15 medium containing 5% human serum and 1 mM sodium pyruvate and plated in 96 U bottom plates (1 × 10^6 cells per well). […] On day 7 of culture the cells were harvested and the frequency of CMV-peptide specific CD8^+ T cells was assessed via flow cytometry using […]-MHC-I tetramers (Tetramer Shop) by quantifying the frequency of tetramer^+ cells within the viable CD8^+ T cell gate.

hERG ion channel = target: T1, hERG ion channel (Homo sapiens, UniProt Q12809); assay: hERG ion channel inhibition (Patchliner automated patch-clamp, CHO cells); format: cell-based; details: whole-cell, room temperature, 6-point curve up to 100 µM
T1 construct: Chinese Hamster Ovary cell lines stably expressing the full-length ion channel; expressed in transfected cells
Experimental: The compounds were tested for inhibition of hERG ion channel. 6-Point concentration-response curves were generated on the Patchliner automated patch-clamp using serial dilutions from a maximum test concentration of 100 µM.
Compounds were solubilised to 33 mM in DMSO before dilution in HBPS to 100 µM. 6-Point concentration-response curves were generated using serial dilutions from the top test concentration. Electrophysiological recordings were made from a Chinese Hamster Ovary cell lines stably expressing the full-length ion channel. Single cell ionic currents were measured in whole-cell configuration at room temperature (21-23° C.) using a Patchliner (Nanion Technologies). The internal solution for hERG contained (mM): 120 KF, 20 KCl, 10 EGTA, 10 HEPES and was buffered to pH 7.3. The external solution (HEPES-buffered saline, HBPS) contained (mM): 138 NaCl, 4.5 KCl, 1.8 CaC12, 1.0 MgC12, 10 HEPES, 10 glucose, buffered to pH7.4. Cells were clamped at a holding potential of -80 mV before a depolarising step appropriate for the hERG channel. Currents were measured from the step and referenced to the holding current. Compounds were incubated for 90 seconds. Concentration-response curves were generated by cumulative addition of compound with concentrations low to high. In all cases, steady-state inhibition was achieved before the next concentration of compound was added.
IC50 values were obtained from a 4-parameter logistic fit of the concentration-response data: […]

human T cells = assay: T cell stimulation assay (Example III, FIG. 1); format: cell-based; details: ATP 100 µM
Experimental: FIG. 1A depicts a graph of log concentration (M) versus percent proliferation. Purified human T cells were activated with anti-CD3/CD28 dynabeads in the presence of ATP (100 µM) as a source of adenosine for 96 h and then proliferation was assessed by CFSE dilution.
FIG. 1B depicts a graph of log concentration of ENT1 inhibitor (M) versus percent proliferation. Experiment performed as in FIG. A with the addition of HSA and AAG to the culture medium (final concentration 2 and 0.1%, respectively).
Peripheral blood mononuclear cells (PBMCs) were first isolated via centrifugation of fresh whole blood over Lymphoprep using SepMate-50 tubes (both from […] Technologies) according to the manufacturer’s instructions. Human T cells were then isolated from the PBMCs using the EasySep Human T cell Isolation Kit ([…] Technologies) according to the manufacturer’s instructions and the cells were cryopreserved in FBS with 10% DMSO until required.
Cryopreserved human T cells were thawed on the day of the experiment and resuspended in PBS with 10% FBS at approximately 1 × 10^7 cells/ml. This cell suspension was diluted 1:1 with 2 µM CFSE solution (ThermoFisher Scientific) in PBS and incubated for 5 minutes at room temperature. The labelling reaction was quenched by further addition of PBS with 10% FBS, and then the cells were washed into X-VIVO15 medium (Lonza) for use in the T cell assay.
CFSE-labelled T cells were plated at 2 × 10^4 cells per well in 384 well plates in the presence of ATP (100 µM, Sigma-Aldrich) as a source of adenosine. Activation was driven by the addition of Dynabeads Human T-Activator CD3/CD28 (ThermoFisher Scientific) at a ratio of 0,5 beads per T cell. ENT1 inhibitor molecules including the reference molecule dilazep (Tocris Bioscience) were added, the volume of the wells was adjusted to 50 µl with X-VIVO15 medium and the plates were cultured in a humidified incubator for 96 h at 37° C. with 5% CO2. In some experiments the culture was supplemented with human serum albumin (HSA) and alpha-1-acid glycoprotein (AAG, both Sigma-Aldrich) at final concentrations of 2 and 0,1%, respectively.
Analysis of proliferation via CSFE dilution was performed by flow cytometry using a BD LSR Fortessa with data analysis on FlowJo (BD Biosciences).

[2] = anti-CD3/CD28 dynabeads, 96 h (FIG. 1A), read-out: IC50 of restoration of T cell proliferation
[3] = with HSA 2% and AAG 0,1% (FIG. 1B), read-out: IC50 of restoration of T cell proliferation under high protein binding conditions

T1 sequence (Q12809 whole entry): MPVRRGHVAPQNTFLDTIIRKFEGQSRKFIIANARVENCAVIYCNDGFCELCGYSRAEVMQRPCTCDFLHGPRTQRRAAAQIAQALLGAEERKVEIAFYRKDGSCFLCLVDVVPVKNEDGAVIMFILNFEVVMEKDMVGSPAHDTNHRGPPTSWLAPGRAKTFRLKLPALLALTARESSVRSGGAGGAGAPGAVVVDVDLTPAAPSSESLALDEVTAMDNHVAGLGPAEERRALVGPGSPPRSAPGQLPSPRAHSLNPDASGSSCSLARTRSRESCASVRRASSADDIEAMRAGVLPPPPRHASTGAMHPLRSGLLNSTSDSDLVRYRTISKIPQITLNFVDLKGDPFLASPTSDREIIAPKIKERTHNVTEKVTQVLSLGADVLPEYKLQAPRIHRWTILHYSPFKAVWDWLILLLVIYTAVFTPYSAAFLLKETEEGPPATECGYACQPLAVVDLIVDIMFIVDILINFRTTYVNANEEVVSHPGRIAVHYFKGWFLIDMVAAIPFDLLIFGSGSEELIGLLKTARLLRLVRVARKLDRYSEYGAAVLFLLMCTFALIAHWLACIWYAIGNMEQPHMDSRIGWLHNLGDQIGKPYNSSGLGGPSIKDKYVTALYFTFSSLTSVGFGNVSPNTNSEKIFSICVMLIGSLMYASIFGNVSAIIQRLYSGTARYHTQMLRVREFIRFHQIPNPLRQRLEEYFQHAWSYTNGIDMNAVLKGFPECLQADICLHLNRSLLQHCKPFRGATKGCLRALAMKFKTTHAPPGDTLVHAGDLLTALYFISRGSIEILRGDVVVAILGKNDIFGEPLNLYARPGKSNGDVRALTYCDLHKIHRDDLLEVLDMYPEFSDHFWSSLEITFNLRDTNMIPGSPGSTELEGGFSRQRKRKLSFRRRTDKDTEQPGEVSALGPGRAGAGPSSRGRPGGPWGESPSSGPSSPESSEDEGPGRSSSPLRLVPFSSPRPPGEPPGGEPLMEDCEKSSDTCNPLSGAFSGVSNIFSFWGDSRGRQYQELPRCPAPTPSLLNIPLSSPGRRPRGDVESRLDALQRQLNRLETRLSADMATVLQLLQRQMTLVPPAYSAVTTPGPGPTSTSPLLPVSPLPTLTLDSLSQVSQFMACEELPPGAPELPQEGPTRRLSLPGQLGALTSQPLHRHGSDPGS

| Structure (SMILES) | Rescue of proliferation of CMV peptide-specific CD8+ T cells [1] | IC50 (hERG ion channel) | IC50 (human T cells; [2]) | IC50 (human T cells; [3]) |
| --- | --- | --- | --- | --- |
| COc1cc(C(=O)O[C@H]2CCCOc3cc(cc(OC)c3OC)C(=O)OCCCN3CCCN(CC2)CC3)cc(OC)c1OC [Compound 2, (12S)-74,75-dimethoxy-6-oxo-5,8-dioxa-1(1,4)-diazepana-7(1,3)-benzenacyclotetradecaphane-12-yl 3,4,5-trimethoxybenzoate] | significant rescue of proliferation | 2500 nM | 0.3 nM | 2 nM |
| COc1cc(C(=O)OC2CCCOc3cc(cc(OC)c3OC)C(=O)N(C)CCCN3CCCN(CC2)CC3)cc(OC)c1OC (stereo not shown) [Compound 11, 74,75-dimethoxy-5-methyl-6-oxo-8-oxa-5-aza-1(1,4)-diazepana-7(1,3)-benzenacyclotetradecaphane-12-yl 3,4,5-trimethoxybenzoate] | significant rescue of proliferation |  | 7 nM | 125 nM |
